The IC50 is the concentration needed to halve the response being measured. Read a high IC50 as weaker potency in that assay.

The assay deals with production of IL-1β, IL-6, and TNF-α by PBMC activated with bacterial lipopolysaccharide (LPS). As to the kind of experiment: Lipopolysaccharide-activated PBMC cytokine production assay. The following applies: LPS 100 ng/mL, 18 hours. The class given is cell-based. The procedure: Lipopolysaccharide-Activated PBMC Cytokine Production Assay
Test compounds were evaluated in vitro for the ability to inhibit the production of IL-1β, IL-6, and TNF-α by PBMC activated with bacterial lipopolysaccharide (LPS). Fresh leukocytes were obtained from a local blood bank, and peripheral blood mononuclear cells (PBMCs) were isolated by density gradient centrifugation on Ficol-Paque Plus (Pharmacia).
Preparation of Test Compound Stock Solutions
All reagents were prepared in RPMI 1640+10% v/v human AB serum+1×Pens/Strep/Glu (assay medium). Test compounds were dissolved in 100% DMSO and serially diluted in 96-well polypropylene round bottom micro titer plates (drug plate). Serial dilutions were then diluted 1:250 into assay medium to a 4× working concentration. […]
LPS was prepared to a 4× concentration in assay medium. […] After 18 hours culture supernatants were removed and IL-1β, IL-6, and TNF-α presence in the supernatants was quantified using MSD ECL based technology.
20 μL of culture supernatant were added to MSD plates, and incubated for one hour at room temperature. 20 μL of detection antibody diluted in antibody diluent (1 μg/mL), and 110 μL of 2× Read Buffer P was added, and incubated for one hour at RT. Electrochemiluminescence was measured using the SECTOR HTS Imager (MSD, Gaithersburg, Md.). […]

`CNc1noc2c(-c3cc4cnn(-c5c(F)cccc5F)c4n(C)c3=O)c(C)ccc12` [Example 5, 1-(2,6-difluorophenyl)-7-methyl-5-(6-methyl-3-(methylamino)-1,2-benzisoxazol-7-yl)-1,7-dihydro-6H-pyrazolo[3,4-b]pyridin-6-one]: the IC50 was at most 100 nM. In turn, `Cc1ccc2c(NC3CC3)noc2c1-c1cc2cnn(-c3c(F)cccc3F)c2n(C)c1=O` [Example 1, 5-(3-(cyclopropylamino)-6-methylbenzo[d]isoxazol-7-yl)-1-(2,6-difluorophenyl)-7-methyl-1H-pyrazolo[3,4-b]pyridin-6(7H)-one] registered an IC50 of at most 100 nM.

For the origin of these results see patent US8435987B2, “Pyrazolo-pyridinone and pyrazolo-pyrazinone compounds as P38 modulators and methods of use thereof” (Amgen Inc., priority 2007, dated 2013).
